{"source": "patent US9783573B2", "about": "“IAP antagonists” (BRISTOL-MYERS SQUIBB COMPANY, priority 2012, dated 2017)"}
{"molecular_target": "N-His-Tb-BIR3 (241-356, XIAP) (Homo sapiens (Human), UniProt P98170)", "experiment": "biochemical", "format": "binding", "settings": "fluoresceinated modified SMAC peptide, fluorescence polarization; read-out: XIAP BIR3 FPA IC50", "units": {"IC50": "µM"}}
{"smiles": "CN[C@@H](C)C(=O)N[C@H](C(=O)N1Cc2cc(NC(=O)CCC(=O)N[C@H]3C[C@@H](C(=O)N[C@@H]4CCCc5ccccc54)N(C(=O)[C@@H](NC(=O)[C@H](C)NC)C(C)(C)C)C3)ccc2C[C@H]1C(=O)N[C@@H]1CCCc2ccccc21)C(C)(C)C", "note": "[Example 1, N^1—((S)-2-((S)-3,3-Dimethyl-2-((S)-2-(methylamino)propanamido)butanoyl)-3-(((R)-1,2,3,4-tetrahydronaphthalen-1-yl)carbamoyl)-1,2,3,4-tetrahydroisoquinolin-7-yl)-N^4-((3S,5S)-1-((S)-3,3-dimethyl-2-((S)-2-(methylamino)propanamido)butanoyl)-5-(((R)-1,2,3,4-tetrahydronaphthalen-1-yl)carbamoyl)pyrrolidin-3-yl)succinamide]", "IC50": 0.061}
{"smiles": "CN[C@@H](C)C(=O)N[C@H](C(=O)N1Cc2cc(N(C(=O)C3(C(N)=O)CC3)[C@H]3C[C@@H](C(=O)N[C@@H]4CCCc5ccccc54)N(C(=O)[C@@H](NC(=O)[C@H](C)NC)C(C)(C)C)C3)ccc2C[C@H]1C(=O)N[C@@H]1CCCc2ccccc21)C(C)(C)C", "note": "[Example 4, N-((S)-2-((S)-3,3-Dimethyl-2-((S)-2-(methylamino)propanamido)butanoyl)-3-(((R)-1,2,3,4-tetrahydronaphthalen-1-yl)carbamoyl)-1,2,3,4-tetrahydroisoquinolin-7-yl)-N-((3S,5S)-1-((S)-3,3-dimethyl-2-((S)-2-(methylamino)propanamido)butanoyl)-5-(((R)-1,2,3,4-tetrahydronaphthalen-1-yl)carbamoyl)pyrrolidin-3-yl)cyclopropane-1,1-dicarboxamide]", "IC50": 0.053}
{"smiles": "CN[C@@H](C)C(=O)N[C@H](C(=O)N1Cc2cc(N(C(=O)C3(C(N)=O)CCC3)[C@H]3C[C@@H](C(=O)N[C@@H]4CCCc5ccccc54)N(C(=O)[C@@H](NC(=O)[C@H](C)NC)C(C)(C)C)C3)ccc2C[C@H]1C(=O)N[C@@H]1CCCc2ccccc21)C(C)(C)C", "note": "[Example 5, N-((S)-2-((S)-3,3-Dimethyl-2-((S)-2-(methylamino)propanamido)butanoyl)-3-(((R)-1,2,3,4-tetrahydronaphthalen-1-yl)carbamoyl)-1,2,3,4-tetrahydroisoquinolin-7-yl)-N-((3S,5S)-1-((S)-3,3-dimethyl-2-((S)-2-(methylamino)propanamido)butanoyl)-5-(((R)-1,2,3,4-tetrahydronaphthalen-1-yl)carbamoyl)pyrrolidin-3-yl)cyclobutane-1,1-dicarboxamide]", "IC50": 0.069}
{"smiles": "CN[C@@H](C)C(=O)N[C@H](C(=O)N1Cc2cc(NC(=O)C3CC4(C3)CC(C(=O)N[C@H]3C[C@@H](C(=O)N[C@@H]5CCCc6ccccc65)N(C(=O)[C@@H](NC(=O)[C@H](C)NC)C(C)(C)C)C3)C4)ccc2C[C@H]1C(=O)N[C@@H]1CCCc2ccccc21)C(C)(C)C", "note": "(stereo partly drawn) [Example 7, N^2-((S)-2-((S)-3,3-Dimethyl-2-((S)-2-(methylamino)propanamido)butanoyl)-3-(((R)-1,2,3,4-tetrahydronaphthalen-1-yl)carbamoyl)-1,2,3,4-tetrahydroisoquinolin-7-yl)-N^6-((3S,5S)-1-((S)-3,3-dimethyl-2-((S)-2-(methylamino)propanamido)butanoyl)-5-(((R)-1,2,3,4-tetrahydronaphthalen-1-yl)carbamoyl)pyrrolidin-3-yl)spiro[3.3]heptane-2,6-dicarboxamide]", "IC50": 0.083}
{"smiles": "CN[C@@H](C)C(=O)N[C@H](C(=O)N1Cc2cc(NC(=O)CCc3ccc(C(=O)N[C@H]4C[C@@H](C(=O)N[C@@H]5CCCc6ccccc65)N(C(=O)[C@@H](NC(=O)[C@H](C)NC)C(C)(C)C)C4)cc3)ccc2C[C@H]1C(=O)N[C@@H]1CCCc2ccccc21)C(C)(C)C", "note": "[Example 8, (S)-2-((S)-3,3-Dimethyl-2-((S)-2-(methylamino)propanamido)butanoyl)-7-(3-(4-(((3S,5S)-1-((S)-3,3-dimethyl-2-((S)-2-(methylamino)propanamido)butanoyl)-5-(((R)-1,2,3,4-tetrahydronaphthalen-1-yl)carbamoyl)pyrrolidin-3-yl)carbamoyl)phenyl)propanamido)-N-((R)-1,2,3,4-tetrahydronaphthalen-1-yl)-1,2,3,4-tetrahydroisoquinoline-3-carboxamide]", "IC50": 0.057}
